Measured values reported in ChEMBL document CHEMBL5465560, “Selectivity Literature for EUbOPEN Chemogenomic Library” (2024).
Each block holds one compound with its values, some of them ahead of it.

Legend:
[1] = molecular target: Casein kinase I isoform gamma-3 (Homo sapiens) (UniProt Q9Y6M4); test: Selectivity interaction (KinaseProfiler screening (Millipore)) EUB0000601a CSNK1G3; details: at 3 µM
[2] = molecular target: Tyrosine-protein kinase BTK (Homo sapiens, UniProt Q06187); details: at 1 µM
[3] = molecular target: T1, Serine/threonine-protein kinase Nek10 (Homo sapiens) (UniProt Q6ZWH5); test: Selectivity interaction (Ambit KINOMEscan and KiNATiv profiling in Jurkat cells) EUB0000090b NEK10; assay type: cell-based; details: at 1 µM
T1 sequence (whole entry): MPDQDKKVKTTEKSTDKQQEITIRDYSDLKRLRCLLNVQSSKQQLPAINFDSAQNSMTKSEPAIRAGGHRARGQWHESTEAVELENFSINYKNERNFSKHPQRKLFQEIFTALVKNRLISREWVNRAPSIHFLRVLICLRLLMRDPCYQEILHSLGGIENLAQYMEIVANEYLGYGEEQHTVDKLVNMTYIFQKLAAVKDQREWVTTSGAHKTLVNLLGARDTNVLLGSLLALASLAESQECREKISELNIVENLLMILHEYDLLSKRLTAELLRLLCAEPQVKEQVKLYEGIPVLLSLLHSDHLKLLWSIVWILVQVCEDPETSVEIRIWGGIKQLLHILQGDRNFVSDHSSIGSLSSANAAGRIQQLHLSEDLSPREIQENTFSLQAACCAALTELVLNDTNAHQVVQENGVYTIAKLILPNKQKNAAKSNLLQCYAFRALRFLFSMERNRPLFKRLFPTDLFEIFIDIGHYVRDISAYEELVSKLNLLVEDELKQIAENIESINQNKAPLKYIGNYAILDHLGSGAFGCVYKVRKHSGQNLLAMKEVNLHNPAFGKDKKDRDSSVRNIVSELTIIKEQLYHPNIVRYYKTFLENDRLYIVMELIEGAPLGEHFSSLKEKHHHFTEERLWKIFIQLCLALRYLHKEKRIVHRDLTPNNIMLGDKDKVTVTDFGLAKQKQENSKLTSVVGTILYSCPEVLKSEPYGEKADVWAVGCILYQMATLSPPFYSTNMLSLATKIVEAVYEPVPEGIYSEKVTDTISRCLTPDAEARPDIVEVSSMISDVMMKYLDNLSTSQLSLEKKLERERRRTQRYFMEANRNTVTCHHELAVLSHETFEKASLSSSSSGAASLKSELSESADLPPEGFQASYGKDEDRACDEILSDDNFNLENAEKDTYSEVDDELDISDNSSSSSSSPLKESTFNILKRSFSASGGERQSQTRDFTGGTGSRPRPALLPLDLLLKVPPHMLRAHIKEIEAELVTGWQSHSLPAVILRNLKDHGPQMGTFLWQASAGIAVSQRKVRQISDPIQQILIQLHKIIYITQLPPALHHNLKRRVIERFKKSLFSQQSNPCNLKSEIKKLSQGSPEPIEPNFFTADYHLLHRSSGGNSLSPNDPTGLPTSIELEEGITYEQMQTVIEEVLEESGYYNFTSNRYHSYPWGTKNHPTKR

[4] = molecular target: Death-associated protein kinase 1 (Homo sapiens, UniProt P53355); test: Selectivity interaction (Kinase panel (Invitrogen)) EUB0000639a DAPK1; details: at 200 nM
[5] = molecular target: MAP kinase-activated protein kinase 3 (Homo sapiens) (UniProt Q16644); test: Selectivity interaction (Kinase panel (Z-LYTE Assay)) EUB0001632a MAPKAPK3; details: at 10 µM
[6] = molecular target: Sodium- and chloride-dependent GABA transporter 1 (Homo sapiens) (UniProt P30531); test: Selectivity interaction (Eurofins CEREP Diversity Profile (receptors and ion channels)) EUB0000279b SLC6A1; details: at 10 µM
[7] = molecular target: Ribosomal protein S6 kinase alpha-3 (Homo sapiens, UniProt P51812); test: Selectivity interaction (KinomeScan (DiscoverX)) EUB0000229b RPS6KA3; details: at 10 µM
[8] = molecular target: Serine/threonine-protein kinase 32B (Homo sapiens) (UniProt Q9NY57); test: Selectivity interaction (KinomeScan (DiscoverX)) EUB0000045b STK32B
[9] = molecular target: Vascular endothelial growth factor receptor 3 (Homo sapiens, UniProt P35916); test: Selectivity interaction (KinomeScan (DiscoverX)) EUB0000655a FLT4; details: at 10 µM
[10] = molecular target: T2, Non-receptor tyrosine-protein kinase TNK1 (Homo sapiens) (UniProt Q13470); test: Selectivity interaction (KinomeScan (DiscoverX)) EUB0000655a TNK1; details: at 10 µM
T2 sequence (whole entry): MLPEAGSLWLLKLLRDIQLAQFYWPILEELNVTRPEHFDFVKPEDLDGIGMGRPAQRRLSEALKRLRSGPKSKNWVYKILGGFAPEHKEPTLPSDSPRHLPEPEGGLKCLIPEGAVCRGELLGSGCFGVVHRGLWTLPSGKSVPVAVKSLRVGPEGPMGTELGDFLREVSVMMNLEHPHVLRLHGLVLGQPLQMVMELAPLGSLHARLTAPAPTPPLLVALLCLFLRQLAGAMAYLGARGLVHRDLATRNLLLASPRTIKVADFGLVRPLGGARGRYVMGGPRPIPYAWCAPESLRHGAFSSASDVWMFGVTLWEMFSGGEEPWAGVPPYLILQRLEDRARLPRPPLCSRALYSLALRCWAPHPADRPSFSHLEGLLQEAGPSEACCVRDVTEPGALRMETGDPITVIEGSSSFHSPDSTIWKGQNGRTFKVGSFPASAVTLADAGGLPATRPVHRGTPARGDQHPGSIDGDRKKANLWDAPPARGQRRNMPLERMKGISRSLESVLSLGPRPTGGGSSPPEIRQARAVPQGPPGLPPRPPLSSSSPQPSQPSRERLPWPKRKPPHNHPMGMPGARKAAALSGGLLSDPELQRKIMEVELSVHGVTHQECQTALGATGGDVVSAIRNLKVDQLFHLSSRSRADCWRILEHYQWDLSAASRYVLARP

[11] = molecular target: Serine/threonine-protein kinase PAK 2 (Homo sapiens) (UniProt Q13177); test: Selectivity interaction (KinomeScan (DiscoverX)) EUB0001619a PAK2; details: at 1 µM
[12] = molecular target: Serine/threonine-protein kinase SIK3 (Homo sapiens) (UniProt Q9Y2K2); test: Selectivity interaction (KinomeScan (DiscoverX)) EUB0001619a SIK3; details: at 1 µM
[13] = molecular target: DNA-dependent protein kinase catalytic subunit (Homo sapiens) (UniProt P78527); test: Selectivity interaction (Kinase panel (KiNativ target engagement assay in Jurkat cells)) EUB0001635a PRKDC; assay type: cell-based; details: Selectivity number of off-targets 0.0, Selectivity number of targets 233.0, Source Knowledge https://www.sciencedirect.com/science/article/pii/S2451945619300674?via%3Dihub, at 1 µM

Serine/threonine-protein kinase 32B (Homo sapiens), sequence (Q9NY57 whole entry): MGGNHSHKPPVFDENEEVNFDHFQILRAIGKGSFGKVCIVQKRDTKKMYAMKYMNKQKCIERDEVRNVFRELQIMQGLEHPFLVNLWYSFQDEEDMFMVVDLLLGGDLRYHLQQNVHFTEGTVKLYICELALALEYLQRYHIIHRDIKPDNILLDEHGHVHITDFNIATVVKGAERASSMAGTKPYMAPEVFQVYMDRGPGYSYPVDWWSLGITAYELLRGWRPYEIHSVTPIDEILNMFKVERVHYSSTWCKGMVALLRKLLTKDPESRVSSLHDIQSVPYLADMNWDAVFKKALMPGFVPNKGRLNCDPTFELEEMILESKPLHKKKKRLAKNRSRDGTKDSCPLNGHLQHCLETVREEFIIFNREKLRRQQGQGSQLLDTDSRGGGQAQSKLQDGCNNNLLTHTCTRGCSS
Ribosomal protein S6 kinase alpha-3, sequence (P51812 whole entry): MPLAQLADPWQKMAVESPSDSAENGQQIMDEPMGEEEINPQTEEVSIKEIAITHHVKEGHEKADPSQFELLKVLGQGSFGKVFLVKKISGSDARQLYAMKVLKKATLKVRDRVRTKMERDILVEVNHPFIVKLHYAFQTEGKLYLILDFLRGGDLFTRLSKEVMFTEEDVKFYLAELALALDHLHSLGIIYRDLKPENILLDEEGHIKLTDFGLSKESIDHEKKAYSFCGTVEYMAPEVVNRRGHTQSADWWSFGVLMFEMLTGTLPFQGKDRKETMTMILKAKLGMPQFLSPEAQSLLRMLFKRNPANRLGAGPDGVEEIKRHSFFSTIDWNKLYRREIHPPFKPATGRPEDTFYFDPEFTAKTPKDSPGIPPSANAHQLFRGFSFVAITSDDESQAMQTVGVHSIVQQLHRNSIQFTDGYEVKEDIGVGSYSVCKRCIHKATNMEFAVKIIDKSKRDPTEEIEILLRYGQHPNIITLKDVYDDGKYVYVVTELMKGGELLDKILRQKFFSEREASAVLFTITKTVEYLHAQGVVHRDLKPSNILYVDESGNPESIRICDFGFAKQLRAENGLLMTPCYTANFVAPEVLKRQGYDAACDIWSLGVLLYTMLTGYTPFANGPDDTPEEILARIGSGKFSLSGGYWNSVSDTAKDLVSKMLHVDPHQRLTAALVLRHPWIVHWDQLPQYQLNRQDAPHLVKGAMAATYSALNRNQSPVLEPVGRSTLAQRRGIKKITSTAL
Tyrosine-protein kinase BTK, sequence (Q06187 whole entry): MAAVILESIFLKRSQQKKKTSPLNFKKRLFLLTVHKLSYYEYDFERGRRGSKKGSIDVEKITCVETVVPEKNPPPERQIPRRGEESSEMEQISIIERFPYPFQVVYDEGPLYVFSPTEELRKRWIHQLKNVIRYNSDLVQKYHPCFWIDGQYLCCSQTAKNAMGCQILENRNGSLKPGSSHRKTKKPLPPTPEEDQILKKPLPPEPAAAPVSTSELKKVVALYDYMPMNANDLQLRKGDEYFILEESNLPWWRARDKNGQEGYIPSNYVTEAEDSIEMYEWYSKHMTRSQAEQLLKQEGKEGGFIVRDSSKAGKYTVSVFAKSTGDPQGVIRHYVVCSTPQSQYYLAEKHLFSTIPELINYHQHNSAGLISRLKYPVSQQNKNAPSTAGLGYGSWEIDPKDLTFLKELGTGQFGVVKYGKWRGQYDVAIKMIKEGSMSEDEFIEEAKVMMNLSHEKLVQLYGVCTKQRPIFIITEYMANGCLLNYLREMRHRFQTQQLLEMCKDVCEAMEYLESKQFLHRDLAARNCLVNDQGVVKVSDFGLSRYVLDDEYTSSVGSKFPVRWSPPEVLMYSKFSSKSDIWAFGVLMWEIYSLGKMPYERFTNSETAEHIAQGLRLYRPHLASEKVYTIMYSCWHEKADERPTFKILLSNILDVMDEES
Casein kinase I isoform gamma-3 (Homo sapiens), sequence (Q9Y6M4 whole entry, looked up, canonical isoform): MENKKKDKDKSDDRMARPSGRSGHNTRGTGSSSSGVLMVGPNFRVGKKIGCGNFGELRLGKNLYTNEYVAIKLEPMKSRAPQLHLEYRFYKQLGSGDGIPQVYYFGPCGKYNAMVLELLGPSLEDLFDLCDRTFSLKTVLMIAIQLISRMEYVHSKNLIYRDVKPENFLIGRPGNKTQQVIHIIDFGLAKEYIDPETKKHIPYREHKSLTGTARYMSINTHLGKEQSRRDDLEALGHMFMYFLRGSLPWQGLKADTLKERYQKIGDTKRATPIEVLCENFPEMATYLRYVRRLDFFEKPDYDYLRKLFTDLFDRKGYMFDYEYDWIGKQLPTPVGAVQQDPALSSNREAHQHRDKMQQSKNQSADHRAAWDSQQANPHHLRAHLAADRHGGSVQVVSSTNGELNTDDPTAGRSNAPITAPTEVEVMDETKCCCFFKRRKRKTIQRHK
Serine/threonine-protein kinase SIK3 (Homo sapiens), sequence (Q9Y2K2 whole entry, looked up): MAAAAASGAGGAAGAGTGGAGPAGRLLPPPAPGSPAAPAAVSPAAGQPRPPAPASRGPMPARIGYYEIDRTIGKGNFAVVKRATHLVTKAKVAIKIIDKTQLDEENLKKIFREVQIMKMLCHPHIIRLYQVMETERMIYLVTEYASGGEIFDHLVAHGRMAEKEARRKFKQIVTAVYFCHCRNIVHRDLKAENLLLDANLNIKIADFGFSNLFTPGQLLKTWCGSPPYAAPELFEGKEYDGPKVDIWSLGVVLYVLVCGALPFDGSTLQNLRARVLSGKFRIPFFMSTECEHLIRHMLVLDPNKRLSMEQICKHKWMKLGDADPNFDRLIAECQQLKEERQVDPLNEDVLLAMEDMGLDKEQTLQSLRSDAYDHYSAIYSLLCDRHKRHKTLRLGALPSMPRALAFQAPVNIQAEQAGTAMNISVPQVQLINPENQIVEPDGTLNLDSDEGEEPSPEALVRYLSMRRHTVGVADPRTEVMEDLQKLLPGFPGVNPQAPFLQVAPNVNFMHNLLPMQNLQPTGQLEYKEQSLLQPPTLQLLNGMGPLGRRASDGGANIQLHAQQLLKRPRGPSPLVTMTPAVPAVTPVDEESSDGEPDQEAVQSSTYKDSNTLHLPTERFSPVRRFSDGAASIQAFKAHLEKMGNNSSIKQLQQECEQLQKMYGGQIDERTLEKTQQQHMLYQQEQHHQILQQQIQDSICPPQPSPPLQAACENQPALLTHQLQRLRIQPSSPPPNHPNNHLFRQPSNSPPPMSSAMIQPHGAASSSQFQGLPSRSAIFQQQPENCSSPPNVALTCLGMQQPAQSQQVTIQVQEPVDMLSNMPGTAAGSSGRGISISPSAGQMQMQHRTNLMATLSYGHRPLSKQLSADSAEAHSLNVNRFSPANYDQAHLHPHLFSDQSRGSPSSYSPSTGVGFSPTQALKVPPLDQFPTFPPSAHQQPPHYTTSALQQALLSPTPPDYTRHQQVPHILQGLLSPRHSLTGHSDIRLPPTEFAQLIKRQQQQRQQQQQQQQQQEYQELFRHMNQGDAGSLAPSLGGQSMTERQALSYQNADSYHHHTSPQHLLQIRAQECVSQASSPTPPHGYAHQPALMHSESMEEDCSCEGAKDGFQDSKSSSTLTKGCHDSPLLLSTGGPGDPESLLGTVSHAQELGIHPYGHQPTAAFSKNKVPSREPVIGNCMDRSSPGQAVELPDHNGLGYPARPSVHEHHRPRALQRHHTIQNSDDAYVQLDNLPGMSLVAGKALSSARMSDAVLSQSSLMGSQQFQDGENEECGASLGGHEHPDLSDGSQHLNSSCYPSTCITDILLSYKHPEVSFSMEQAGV
Death-associated protein kinase 1, sequence (P53355 whole entry, looked up): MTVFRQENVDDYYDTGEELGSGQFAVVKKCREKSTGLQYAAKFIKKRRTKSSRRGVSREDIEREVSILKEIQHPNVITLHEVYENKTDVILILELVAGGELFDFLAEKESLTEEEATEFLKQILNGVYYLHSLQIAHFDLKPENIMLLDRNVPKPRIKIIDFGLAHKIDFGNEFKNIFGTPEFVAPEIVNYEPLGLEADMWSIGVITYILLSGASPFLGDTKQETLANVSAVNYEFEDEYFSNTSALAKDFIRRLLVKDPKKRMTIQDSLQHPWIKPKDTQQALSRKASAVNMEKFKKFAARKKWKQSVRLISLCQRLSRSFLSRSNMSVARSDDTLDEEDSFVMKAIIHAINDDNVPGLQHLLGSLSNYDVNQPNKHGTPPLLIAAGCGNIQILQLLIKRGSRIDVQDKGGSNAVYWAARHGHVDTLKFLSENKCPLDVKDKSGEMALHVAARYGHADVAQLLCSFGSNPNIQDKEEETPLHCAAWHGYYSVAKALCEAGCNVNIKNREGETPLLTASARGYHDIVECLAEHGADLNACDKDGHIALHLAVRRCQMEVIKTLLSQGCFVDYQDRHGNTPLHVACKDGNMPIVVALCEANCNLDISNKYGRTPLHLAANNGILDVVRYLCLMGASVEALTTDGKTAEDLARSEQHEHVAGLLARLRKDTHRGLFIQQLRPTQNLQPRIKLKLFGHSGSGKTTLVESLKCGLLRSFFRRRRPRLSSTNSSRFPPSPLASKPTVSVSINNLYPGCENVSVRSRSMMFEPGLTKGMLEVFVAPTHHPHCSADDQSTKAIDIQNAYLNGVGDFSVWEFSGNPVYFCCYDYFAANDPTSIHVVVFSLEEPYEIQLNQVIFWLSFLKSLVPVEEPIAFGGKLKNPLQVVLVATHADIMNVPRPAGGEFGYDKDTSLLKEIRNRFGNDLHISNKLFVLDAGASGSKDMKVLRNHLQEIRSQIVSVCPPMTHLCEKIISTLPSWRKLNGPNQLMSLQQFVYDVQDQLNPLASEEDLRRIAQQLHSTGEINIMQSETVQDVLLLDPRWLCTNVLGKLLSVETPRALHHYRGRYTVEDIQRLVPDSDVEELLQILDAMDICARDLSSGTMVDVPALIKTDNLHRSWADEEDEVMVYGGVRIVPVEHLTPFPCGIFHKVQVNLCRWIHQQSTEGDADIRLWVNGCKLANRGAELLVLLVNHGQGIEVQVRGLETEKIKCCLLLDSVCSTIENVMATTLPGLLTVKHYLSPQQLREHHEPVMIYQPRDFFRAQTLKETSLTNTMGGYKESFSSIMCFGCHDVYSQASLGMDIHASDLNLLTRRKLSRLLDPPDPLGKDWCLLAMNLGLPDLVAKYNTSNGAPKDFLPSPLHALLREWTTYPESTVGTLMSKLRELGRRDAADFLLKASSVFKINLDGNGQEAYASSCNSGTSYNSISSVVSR

% of inhibition [1]: 46%
Structure (SMILES): CCc1cc(Nc2nccc(-c3c(-c4ccc(OC)c(C(=O)Nc5c(F)cccc5F)c4)nc4ccccn34)n2)c(OC)cc1N1CCC(N2CCN(S(C)(=O)=O)CC2)CC1

% of control [2]: 2.9%
Structure (SMILES): Cc1cc(-c2ccnc(Nc3cnn(C)c3)n2)ccc1CNC(=O)N1CC(OC(C)C)C1

Structure (SMILES): CN(C)C/C=C/C(=O)Nc1ccc(C(=O)N2CCCC(Nc3ncc(Cl)c(-c4c[nH]c5ccccc45)n3)C2)cc1 (centres undefined)
% of control [3]: 100%

Structure (SMILES): CC[C@@H]1[C@H](F)C(=O)N[C@@H]1COc1nccc2cc(C(N)=O)c(OC)cc12 [ZIMLOVISERTIB]
% of inhibition [4]: 16.2%

% of control [5]: 2.63%
Structure (SMILES): Cn1cc(-n2cnc3c(NCc4nc5cc(Cl)c(Cl)cc5[nH]4)nc(N4CCOCC4)nc32)cn1

% of control [6]: 107%
Structure (SMILES): CC(=O)c1cc(-c2ccccc2OCC2CC2)c2ncccn12

Structure (SMILES): COc1cc(N(C)c2ccnc3ccc(C(F)(F)F)cc23)cc(OC)c1OC
% binding [7]: 95%

Structure (SMILES): C=CC(=O)Nc1cc(-n2c(=O)ccc3cnc4ccc(-c5ccc(NS(C)(=O)=O)cc5)cc4c32)ccc1C
% of control ([8]; at 1 µM): 100%
% of control ([8]; at 10 µM): 100%

Structure (SMILES): CN(C)CCOc1ccc(-c2nc(-c3ccncc3)c(-c3ccc4c(c3)CC/C4=N\O)[nH]2)cc1
% of control [9]: 100%
% of control [10]: 100%

Structure (SMILES): N#Cc1cccc(-c2c[nH]c3ncnc(N4CCOCC4)c23)c1
% of control [11]: 100%
% of control [12]: 100%

Structure (SMILES): C=CC(=O)Nc1ccc(C(=O)Nc2[nH]nc3c2CN(C(=O)N[C@H](CN(C)C)c2ccccc2)C3(C)C)cc1
% of engagement [13]: -21.9%
